We go through 20 molecules from ChEMBL document CHEMBL3351615, “Design, synthesis and evaluation of novel HDAC inhibitors as potential antitumor agents” (Bioorg Med Chem Lett, 2014).

One data set deals with Histone deacetylase 1 (Homo sapiens, UniProt Q13547). Nature of the data set: Inhibition of HDAC1 (unknown origin) using Boc-Lys(Ac)-AMC as substrate by fluorescence assay.
Data set [1] in a line: cells. It is filed as functional. As to conditions: Homo sapiens, HCT-116, 72 h.
Description: Growth inhibition of human HCT116 cells after 72 hrs by CellTiter Glo assay
Data set [2] is described as follows: cells. It is filed as functional. As to conditions: Homo sapiens, PC-3, 72 h.
Description: Growth inhibition of human PC3 cells after 72 hrs by CellTiter Glo assay
Data set [3] is described as follows: cells. The data set is classed as functional. As to conditions: Homo sapiens, HL-60, 72 h.
Description: Growth inhibition of human HL60 cells after 72 hrs by CellTiter Glo assay
Data set [4] is described as follows: Antitumor activity against human HCT116 cells xenografted in mouse assessed as tumor growth reduction at 50 mg/kg, po qd for 3 weeks relative to vehicle-treated control. The data set is classed as functional. As to conditions: HCT-116, 504 h, read-out: TGI.
Data set [5] deals with Mus musculus. Kind of data set: Toxicity in human HCT116 cells xenografted mouse at 200 mg/kg, po qd measured after 10 days relative to vehicle-treated control. The data set is classed as organism-based, HCT-116. Details: dose 200 mg/kg, route oral. As to conditions: in vivo, 240 h.
Data set [6] has as its system Mus musculus. Nature of the data set: Toxicity in human HCT116 cells xenografted mouse assessed as body weight loss at 50 mg/kg, po qd for 3 weeks relative to vehicle-treated control. The data set is classed as organism-based, HCT-116. Further details: dose 50 mg/kg, route oral. As to conditions: in vivo, 504 h.
Data set [7] can be described thus: Antitumor activity against human HCT116 cells xenografted in mouse assessed as tumor growth reduction at 75 mg/kg, po qd as intermittent dosing schedule with 3 days on plus 3 days off for 3 weeks relative to vehicle-treated control. As to conditions: HCT-116, read-out: TGI. It is filed as functional.
Data set [8] deals with Mus musculus. Kind of data set: Toxicity in human HCT116 cells xenografted mouse assessed as body weight loss at 50 mg/kg, po qd as intermittent dosing schedule with 3 days on plus 3 days off for 3 weeks relative to vehicle-treated control. It is filed as organism-based, HCT-116. Further details: dose 50 mg/kg, route oral. As to conditions: in vivo.
A short description of data set [9]: Antitumor activity against human HCT116 cells xenografted in mouse assessed as tumor growth reduction at 200 mg/kg, po qd measured after 10 days relative to vehicle-treated control. It is filed as functional. As to conditions: HCT-116, 240 h, read-out: TGI.
For a further data set, the system named is HCT-116. Nature of the data set: Ratio of vorinostat IC50 to compound IC50 for human HCT116 cells after 72 hrs by CellTiter Glo assay. The data set is classed as functional.
In a further data set the target is hERG (KCNH2) (Homo sapiens, UniProt Q12809). Kind of data set: Inhibition of human ERG at 10 uM.
Chain of hERG (KCNH2) (Q12809 whole entry): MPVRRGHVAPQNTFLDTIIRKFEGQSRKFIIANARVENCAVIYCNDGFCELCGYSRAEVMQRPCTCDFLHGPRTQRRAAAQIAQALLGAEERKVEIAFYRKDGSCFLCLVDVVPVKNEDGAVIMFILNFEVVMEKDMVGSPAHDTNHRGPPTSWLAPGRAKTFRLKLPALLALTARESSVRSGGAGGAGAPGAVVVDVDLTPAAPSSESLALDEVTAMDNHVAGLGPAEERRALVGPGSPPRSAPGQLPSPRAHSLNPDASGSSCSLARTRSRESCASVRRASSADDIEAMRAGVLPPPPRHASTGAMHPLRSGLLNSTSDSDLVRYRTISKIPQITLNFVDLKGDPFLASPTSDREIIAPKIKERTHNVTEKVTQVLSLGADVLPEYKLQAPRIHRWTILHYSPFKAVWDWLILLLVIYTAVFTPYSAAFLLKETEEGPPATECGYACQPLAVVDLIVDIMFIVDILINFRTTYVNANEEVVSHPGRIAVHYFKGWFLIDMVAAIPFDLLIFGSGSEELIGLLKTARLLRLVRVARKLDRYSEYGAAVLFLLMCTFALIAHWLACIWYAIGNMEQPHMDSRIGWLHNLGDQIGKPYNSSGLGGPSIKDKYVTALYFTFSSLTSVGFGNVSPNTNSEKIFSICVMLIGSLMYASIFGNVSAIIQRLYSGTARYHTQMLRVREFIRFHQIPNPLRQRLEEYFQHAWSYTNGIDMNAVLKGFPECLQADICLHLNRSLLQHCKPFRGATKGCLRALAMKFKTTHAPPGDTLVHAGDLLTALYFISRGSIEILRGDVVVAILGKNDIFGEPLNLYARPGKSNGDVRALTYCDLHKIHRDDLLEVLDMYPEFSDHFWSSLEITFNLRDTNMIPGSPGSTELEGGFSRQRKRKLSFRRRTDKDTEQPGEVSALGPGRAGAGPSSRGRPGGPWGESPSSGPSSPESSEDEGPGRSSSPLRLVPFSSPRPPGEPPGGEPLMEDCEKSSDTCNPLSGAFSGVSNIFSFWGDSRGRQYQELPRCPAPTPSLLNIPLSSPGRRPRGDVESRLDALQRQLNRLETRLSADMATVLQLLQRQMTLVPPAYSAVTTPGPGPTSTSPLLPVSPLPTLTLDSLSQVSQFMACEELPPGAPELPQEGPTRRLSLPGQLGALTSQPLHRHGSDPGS

Molecules are shown by their SMILES.

Chain of Histone deacetylase 1 (Q13547 whole entry): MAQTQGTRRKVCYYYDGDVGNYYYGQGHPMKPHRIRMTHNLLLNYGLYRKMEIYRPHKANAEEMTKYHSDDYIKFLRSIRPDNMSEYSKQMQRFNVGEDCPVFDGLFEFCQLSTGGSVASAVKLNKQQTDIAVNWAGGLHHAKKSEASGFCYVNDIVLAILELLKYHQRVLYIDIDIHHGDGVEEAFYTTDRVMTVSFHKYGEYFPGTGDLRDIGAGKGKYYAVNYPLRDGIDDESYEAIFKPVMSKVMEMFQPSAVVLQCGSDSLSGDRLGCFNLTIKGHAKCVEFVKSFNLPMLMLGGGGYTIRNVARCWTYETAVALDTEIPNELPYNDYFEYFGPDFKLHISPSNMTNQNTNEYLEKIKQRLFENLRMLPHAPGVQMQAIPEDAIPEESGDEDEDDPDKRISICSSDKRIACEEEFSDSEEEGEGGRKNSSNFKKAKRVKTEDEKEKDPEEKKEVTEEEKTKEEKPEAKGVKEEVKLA

Turning to `O=C(NO)c1ccc(N2CCN(c3cccnc3)C2=O)cc1`, on Histone deacetylase 1, half-maximal inhibition (IC50) was put at 182 nM.
Same read-out and setting: under `O=C(NO)c1ccc(N2CCN(c3cnc4ccccc4c3)C2=O)cc1` stands 152 nM.
`O=C(NO)c1ccc(N2CCN(Cc3ccccc3)C2=O)cc1` returned an IC50 at Histone deacetylase 1 of 17 nM. The same molecule registered a GI50 in “cells [1]” of 850 nM.
Take `O=C(NO)c1ccc(N2CCN(Cc3ccc(F)cc3)C2=O)cc1`: the IC50 against Histone deacetylase 1 was 21 nM.
`COc1ccc(CN2CCN(c3ccc(C(=O)NO)cc3)C2=O)cc1` showed an IC50 against Histone deacetylase 1 of 12 nM. The molecule also registered a GI50 in the data set “cells [1]” of 470 nM.
With `O=C(NO)c1ccc(N2CCN(Cc3ccc(C(F)(F)F)cc3)C2=O)cc1`, the IC50 against Histone deacetylase 1 worked out at 80 nM. This counts as double-digit nanomolar.
On the same count and under the same terms, under `O=C(NO)c1ccc(N2CCN(Cc3ccncc3)C2=O)cc1` stands 41 nM; under `O=C(NO)c1ccc(N2CCN(Cc3cccnc3)C2=O)cc1`, 42 nM.
`CN(C)c1cccc(CN2CCN(c3ccc(C(=O)NO)cc3)C2=O)c1`: at Histone deacetylase 1, inhibition was half-maximal at 9.5 nM (IC50). Further, the figures for the GI50 in “cells [1]”, in the data set “cells [2]” and in “cells [3]” were 330 nM, 430 nM and 440 nM, respectively.
The molecule `CN(C)Cc1cccc(CN2CCN(c3ccc(C(=O)NO)cc3)C2=O)c1` showed an IC50 on Histone deacetylase 1 of 23 nM.
Still for that read-out and setting: under `CN(C)Cc1ccc(CN2CCN(c3ccc(C(=O)NO)cc3)C2=O)cc1` stands 25 nM; under `O=C(NO)c1ccc(N2CCN(Cc3cccc4ccccc34)C2=O)cc1`, 9.5 nM.
With `O=C(NO)c1ccc(N2CCN(Cc3ccc4ccccc4c3)C2=O)cc1`, on Histone deacetylase 1, the IC50 was found to be 5.4 nM. The GI50 is 210 nM in the data set “cells [1]”, 380 nM in the data set “cells [2]” and 360 nM in the data set “cells [3]”.
For `O=C(NO)c1ccc(N2CCN(Cc3cccc4ncccc34)C2=O)cc1`, in that order: 5.4 nM, 270 nM, 340 nM and 250 nM.
On to `CCN(CC)Cc1ccc2cc(CN3CCN(c4ccc(C(=O)NO)cc4)C3=O)ccc2c1`, for which the inhibition in vivo at 50 mg/kg in data set [4] worked out at 45%. Also, half-maximal inhibition against Histone deacetylase 1 (IC50) required 2.7 nM. The Activity entry with Mus musculus [5] is on record as “Toxic”; with Mus musculus [6], less than 15%; with Mus musculus [8], less than 15%. In addition, the results for the 50% growth inhibitory concentration (GI50) in the data set “cells [1]”, in the data set “cells [2]” and in the data set “cells [3]” were 110 nM, 100 nM and 86 nM, respectively. The inhibition in vivo at 75 mg/kg in [7] turned out to be 54%. Also, the inhibition in vivo at 200 mg/kg in data set [9] came out at 50%. Moreover, in the data set on HCT-116, the “Ratio IC50” value is on record as 6. The inhibition at 10 µM against hERG (KCNH2) was 27%.
Take `O=C(NO)c1ccc(N2CCN(CCc3ccccc3)C2=O)cc1`: at Histone deacetylase 1, inhibition was half-maximal at 13 nM (IC50). Moreover, the GI50 in “cells [1]” came to 650 nM.
For the molecule `Cn1cc(CCN2CCN(c3ccc(C(=O)NO)cc3)C2=O)c2ccccc21`, on Histone deacetylase 1, 4 nM corresponded to half-maximal inhibition (IC50). The GI50 was determined as 240 nM in “cells [1]”, 210 nM in the data set “cells [2]” and 480 nM in the data set “cells [3]”.
At Histone deacetylase 1, `CC(C)CN1CCN(c2ccc(C(=O)NO)cc2)C1=O` displayed an IC50 of 250 nM.
Molecule `O=C(NO)c1ccc(N2CCN(CCCN3CCOCC3)C2=O)cc1` had an IC50 against Histone deacetylase 1 of 125 nM.
`O=C(NO)c1ccc(N2CCN(CCCN3CCCC3)C2=O)cc1` gave an IC50 on Histone deacetylase 1 of 114 nM.
